Measurements published in patent publication US20190201586A1, “Three-Dimensional Tissue Matrix Scaffold System” (Washington State University, priority 2016, published 2019).

Key:
Assay type in all cases: cell-based
[1] = system: BT474 breast cancer cells; assay: CCK-8 proliferation assay and drug screening, BT474 cells in 2D culture and on 3D scaffolds; conditions: 1 μM; for cell proliferation after administration of the drug: on day 7, 9, 11, 13, 3D and 2D cultures; for response of the cancer cells to the drug in cell-laden TMS cultures compared to the other 3D culture conditions: TMS vs collagen, IrECM, PLGA scaffolds
Protocol: (§1) Proliferation assay in 3D culture. The proliferation of the cells grown on the different scaffolds or treated with the different drugs was measured using the CCK-8 reagent at the time points indicated. Briefly, the cell-laden scaffolds (triplicates for each condition) were cultured in 96-well plates. CCK-8 solution was added at a 1:10 dilution into the cultures. The colorimetric absorbance of the supernatants of the cultures that reflects the cell proliferation rate was measured at 490 nm using a Synergy 2 microplate reader (BioTek) after 4 hours of incubation (37° C., 5% CO2). Error bars represent standard deviations (s.d.) of the means of three independent experiments.
(§2) Drug screening. The T47D and BT474 breast cancer cells were used to test the efficacies of the two anticancer drugs, HT and Taxol, in 2D and 3D cultures. 2×10^3 cells/well and 1×10^5 cells/scaffold (in triplicates) were seeded on 2D surface and the 3D scaffolds, respectively, and cultured in 96-well plates for 7 days. The drugs at the final concentration of 1 μM were administered separately to the cultures on day 7, 9, 11, 13 of culture for 24 hours, and cell survival as well as proliferation status assessed on day 1, 8, 10, 12, 14, 21 using the CCK-8 reagent and the Live/Dead assay, respectively. After the measurement on day 14, a seven-day recovering period was included to evaluate the post-treatment proliferation potential of the cells. Three independent experiments were performed for statistical significance.

T47D cells = assay: Live/Dead Cell staining of scaffold cultures after drug treatment; conditions: T47D-laden DBT-TMS and PLGA scaffolds; 1 μM
Protocol: Live/Dead Cell staining. The survival of the cells grown on the 3D scaffolds were assessed using the Live/Dead Cell Staining kit. The cell-carrying scaffolds at different time points or under different treatment conditions were collected and manually sectioned at 250-500 μm of thickness. The sections were washed twice with 1×PBS (37° C.), incubated in the staining solution (2 μM of calcein-AM and 4 μM of EhtD-III in 1×PBS) at RT for 45 minutes, and imaged using fluorescence microscopy. Calcein-AM stains live cells green (under EGFP filter), while EthD-III stains dead cells red (under Texas Red filter).
as §2, with “Three independent experiments were performed for statistical significance.” left out

T47D breast cancer cells = assay: CCK-8 proliferation assay and drug screening, T47D cells in 2D culture and on 3D scaffolds; conditions: 1 μM; for cell proliferation after administration of the drug: on day 7, 9, 11, 13, 3D and 2D cultures; for response of the cancer cells to the drug in cell-laden TMS cultures compared to the other 3D culture conditions: TMS vs collagen, IrECM, PLGA scaffolds
Protocol: as §1, §2

SMILES	cell proliferation after administration of the drug [1]	response of the cancer cells to the drug in cell-laden TMS cultures compared to the other 3D culture conditions [1]	cell proliferation and clustering over the period of treatment (Live/Dead staining) (T47D cells)	cell proliferation after administration of the drug (T47D breast cancer cells)	response of the cancer cells to the drug in cell-laden TMS cultures compared to the other 3D culture conditions (T47D breast cancer cells)
CC/C(=C(\c1ccc(O)cc1)c1ccc(OCCN(C)C)cc1)c1ccccc1 [HT, (Z)-4-Hydroxytamoxifen]	time-dependently inhibited cell proliferation	lower response	markedly attenuated	time-dependently inhibited cell proliferation	lower response
CC(=O)O[C@H]1C(=O)[C@@]2(C)[C@H]([C@H](OC(=O)c3ccccc3)[C@]3(O)C[C@H](OC(=O)[C@H](O)[C@@H](NC(=O)c4ccccc4)c4ccccc4)C(C)=C1C3(C)C)[C@]1(OC(C)=O)CO[C@@H]1C[C@@H]2O [Taxol, Paclitaxel]	time-dependently inhibited cell proliferation	lower response	markedly attenuated	time-dependently inhibited cell proliferation	lower response
